Data reported in the CheMixHub viscosity set.
Where “and” joins values, the source holds several entries; their conditions need not be identical. Identical values can stand only once. ± gives the uncertainty stated by the source.

Assay: xn = mol fraction of the nth substance listed

Cc1ccc(O)cc1 + CCC(=O)O
viscosity [mPa·s], 101 kPa
Conditions	x2 = 0.1344	x2 = 0.2589	x2 = 0.3745	x2 = 0.4823	x2 = 0.5828	x2 = 0.677	x2 = 0.7653	x2 = 0.8482	x2 = 0.9263
298.15 K	10.16 ± 0.76	7.533 ± 0.59	5.663 ± 0.48	4.309 ± 0.38	3.321 ± 0.3	2.59 ± 0.23	2.042 ± 0.19	1.625 ± 0.15	1.297 ± 0.12
308.15 K	6.121 ± 0.5	4.928 ± 0.43	3.983 ± 0.35	3.238 ± 0.29	2.597 ± 0.23	2.136 ± 0.2	1.709 ± 0.16	1.372 ± 0.13	1.112 ± 0.11
318.15 K	4.876 ± 0.42	4.035 ± 0.35	3.365 ± 0.3	2.772 ± 0.25	2.281 ± 0.21	1.853 ± 0.17	1.512 ± 0.14	1.241 ± 0.12	0.9766 ± 0.097

Cc1cccc(C)c1 + CCC(C)O
308.15 K, 101 kPa
Conditions	viscosity [mPa·s]
x2 = 0.0658	0.532 ± 0.011
x2 = 0.1295	0.544 ± 0.011
x2 = 0.2112	0.563 ± 0.012
x2 = 0.3085	0.592 ± 0.012
x2 = 0.3828	0.622 ± 0.013
x2 = 0.4366	0.653 ± 0.014
x2 = 0.5058	0.696 ± 0.015
x2 = 0.6047	0.792 ± 0.017
x2 = 0.698	0.919 ± 0.019
x2 = 0.8006	1.071 ± 0.022
x2 = 0.9493	1.724 ± 0.036

Nc1ccccc1Cl + CCC(C)O
viscosity [mPa·s], 101 kPa
Conditions	x1 = 0.0896	x1 = 0.1798	x1 = 0.2798	x1 = 0.3912	x1 = 0.4951	x1 = 0.5894	x1 = 0.6812	x1 = 0.7958	x1 = 0.8925
303.15 K	2.78 ± 0.6	2.94 ± 0.64	3.11 ± 0.68	3.28 ± 0.71	3.41 ± 0.74	3.51 ± 0.76	3.6 ± 0.78	3.7 ± 0.8	3.76 ± 0.82
308.15 K	2.36 ± 0.51	2.53 ± 0.55	2.69 ± 0.58	2.85 ± 0.62	2.99 ± 0.65	3.1 ± 0.67	3.19 ± 0.69	3.29 ± 0.72	3.36 ± 0.73
313.15 K	2.04 ± 0.44	2.21 ± 0.48	2.37 ± 0.52	2.53 ± 0.55	2.66 ± 0.58	2.77 ± 0.6	2.86 ± 0.62	2.96 ± 0.64	3.03 ± 0.66
318.15 K	1.77 ± 0.38	1.94 ± 0.42	2.09 ± 0.45	2.24 ± 0.49	2.37 ± 0.52	2.47 ± 0.54	2.57 ± 0.56	2.68 ± 0.58	2.74 ± 0.6

O=S1(=O)CCCC1 + CCC(C)O
viscosity [mPa·s], 101 kPa
Conditions	x1 = 0.0998	x1 = 0.1988	x1 = 0.2898	x1 = 0.3908	x1 = 0.4973	x1 = 0.5943	x1 = 0.7033	x1 = 0.78	x1 = 0.9045
303.15 K	2.151 ± 0.026	–	2.299 ± 0.026	2.55 ± 0.029	2.933 ± 0.034	3.428 ± 0.041	4.266 ± 0.053	5.138 ± 0.066	7.383 ± 0.099
308.15 K	1.858 ± 0.02	1.884 ± 0.021	2.015 ± 0.022	2.246 ± 0.025	2.597 ± 0.03	3.049 ± 0.036	3.799 ± 0.046	4.576 ± 0.056	6.529 ± 0.082
313.15 K	1.615 ± 0.017	1.655 ± 0.018	–	1.993 ± 0.022	2.316 ± 0.026	2.728 ± 0.031	3.407 ± 0.04	4.097 ± 0.049	5.806 ± 0.069

Cc1ccc(O)cc1 + CCCC(=O)O
viscosity [mPa·s], 101 kPa
Conditions	x2 = 0.1119	x2 = 0.2208	x2 = 0.327	x2 = 0.4305	x2 = 0.5313	x2 = 0.6297	x2 = 0.7257	x2 = 0.8193	x2 = 0.9107
298.15 K	11.14 ± 0.82	8.918 ± 0.68	7.131 ± 0.57	5.694 ± 0.48	4.541 ± 0.4	3.617 ± 0.32	2.884 ± 0.26	2.319 ± 0.21	1.88 ± 0.17
308.15 K	6.522 ± 0.53	5.57 ± 0.47	4.738 ± 0.41	4.049 ± 0.36	3.417 ± 0.3	2.851 ± 0.26	2.364 ± 0.21	1.922 ± 0.18	1.517 ± 0.14
318.15 K	5.117 ± 0.44	4.435 ± 0.39	3.835 ± 0.34	3.299 ± 0.29	2.808 ± 0.25	2.362 ± 0.21	1.987 ± 0.18	1.643 ± 0.15	1.256 ± 0.12

Cc1cccc(C)c1 + CCCCCCCCCC
viscosity [mPa·s], 101 kPa
Conditions	x1 = 0.0494	x1 = 0.1119	x1 = 0.2059	x1 = 0.2732	x1 = 0.4032	x1 = 0.4856	x1 = 0.6058	x1 = 0.7313	x1 = 0.8131	x1 = 0.9342
308.15 K	0.7221 ± 0.012	0.6889 ± 0.012	0.6779 ± 0.012	0.6545 ± 0.011	0.6148 ± 0.011	0.5958 ± 0.01	0.5728 ± 0.01	0.5498 ± 0.0099	0.5392 ± 0.0097	0.5253 ± 0.0095
313.15 K	0.6818 ± 0.012	0.6525 ± 0.011	0.6364 ± 0.011	0.6134 ± 0.011	0.5805 ± 0.01	0.5631 ± 0.01	0.542 ± 0.0097	0.5191 ± 0.0094	0.5122 ± 0.0093	0.4972 ± 0.0091

Cc1cccc(C)c1 + CCCCCCCCCCCC
323.15 K, 100 kPa
Conditions	viscosity
x1 = 0.453	0.682 ± 0.028 mPa·s and 0.683 ± 0.028 mPa·s
x1 = 0.757	0.538 ± 0.022 mPa·s and 0.539 ± 0.022 mPa·s

Cc1cccc(C)c1 + CCCCCCCCCCO
viscosity [mPa·s], 101 kPa
Conditions	298.15 K	308.15 K
x1 = 0.0627	9.938 ± 0.068	6.871 ± 0.049
x1 = 0.1424	7.856 ± 0.055	5.489 ± 0.04
x1 = 0.2052	6.481 ± 0.046	4.577 ± 0.034
x1 = 0.2618	5.435 ± 0.04	3.88 ± 0.029
x1 = 0.3217	4.497 ± 0.034	3.243 ± 0.024
x1 = 0.3934	3.563 ± 0.027	2.622 ± 0.02
x1 = 0.4989	2.534 ± 0.019	1.912 ± 0.015
x1 = 0.5581	2.095 ± 0.016	1.617 ± 0.013
x1 = 0.6343	1.645 ± 0.014	1.299 ± 0.011
x1 = 0.7131	1.292 ± 0.011	1.045 ± 0.01
x1 = 0.7991	1.001 ± 0.01	0.835 ± 0.009
x1 = 0.8465	0.874 ± 0.009	0.742 ± 0.008
x1 = 0.8964	0.762 ± 0.008	0.662 ± 0.008
x1 = 0.9421	0.674 ± 0.008	0.599 ± 0.008
